# Data taken from article PMC3353486, “Fluorescence Correlation Spectroscopy in Drug Discovery: Study of Alexa532-Endothelin 1 Binding to the Endothelin ETA Receptor to Describe the Pharmacological Profile of Natural Products” (The Scientific World Journal, 2012).
# What was measured:
# endothelin ETA receptor = molecular target: T1, endothelin ETA receptor (Rattus norvegicus, UniProt P26684); assay: FCS binding of Alexa532-ET1 to ETA receptor on living A10 cells (total, saturation, lateral mobility)
# T1 construct: endothelin ETA receptor-ligand complex alone and under the influence of a semisynthetic selective antagonist and a fungal extract on living A10 cells; endogenous in cells; host or cells: A10 cells
# T1 sequence (P26684 21-426): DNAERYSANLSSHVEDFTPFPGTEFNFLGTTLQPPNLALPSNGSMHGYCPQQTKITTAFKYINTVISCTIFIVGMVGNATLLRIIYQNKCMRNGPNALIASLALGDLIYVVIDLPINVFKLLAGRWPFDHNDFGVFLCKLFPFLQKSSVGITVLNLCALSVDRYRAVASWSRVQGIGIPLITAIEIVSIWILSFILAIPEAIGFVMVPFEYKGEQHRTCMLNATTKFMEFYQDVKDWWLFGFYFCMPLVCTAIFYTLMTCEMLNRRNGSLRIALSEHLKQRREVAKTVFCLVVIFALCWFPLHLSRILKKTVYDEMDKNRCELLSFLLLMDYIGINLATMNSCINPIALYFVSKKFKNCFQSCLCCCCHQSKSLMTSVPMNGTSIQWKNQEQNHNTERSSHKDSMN
# Protocol: FCS measurements were performed via confocal illumination of a volume element of 0.19 fL in a ConfoCor 1 instrument (Zeiss, Jena, Germany) with a C-Apochromat 63x, NA 1.2 objective for water immersion. A dichroic filter and a band-pass filter (FT 540, EF 530–600) (Andover, Salem, MA) separated the excitation light from the emitted fluorescence. Sample excitation was performed with the 514 nm line of an argon laser. The power of the laser beam entering the sample was 2.4 kW/cm^2. The intensity fluctuations were detected by an avalanche photodiode (SPCM-AQ Series, PerkinElmer Optoelectronics, Fremont, ON) and were correlated with a digital hardware correlator (ALV-5000, ALV, Langen, Germany). To calibrate the volume element of observation for the experiments, a defined concentration of tetramethylrhodamine (TMR) was used. From the determined diffusion time constant of TMR and the diffusion coefficient D of 280 μm^2/s, the radio ω 0 (0.20 μm) and z 0 (1.08 μm) of the volume element were determined. Volume element positioning to the upper membrane of the cell was performed by motor-aided scanning through the cell in the z-direction (optoelectronical DC-servodrives, resolution of 0.1 μm). For the FCS experiments, the focus was placed at half maximal of fluorescence intensity at the upper membrane, taking in fast diffusing free ligand and slow diffusing receptor-ligand complexes in the plasma membrane.
# A10 cells were seeded at a density of 5.0 × 10^4 on 18 mm poly-D-lysine-coated coverslips. The coverslips were placed in a Nunc 12 well plate, and the cells were cultured for 7 days in Dulbecco's Modified Essential Media supplemented with L-glutamine (2 mM), 1% of a solution containing 10000 I.U./mL penicillin and 10000 μg/mL streptomycin (GIBCO, Invitrogen, Karlsruhe, Germany) and 20% foetal calf serum. The cells were grown in 5% CO2 at 37°C until confluence was reached.
# Prior to the FCS measurements, cells were washed three times with Locke's solution (5 mM HEPES, 154 mM NaCl, 5.6 mM KCl, 1 mM MgCl2, 3.6 mM Na2CO3, 2.0 mM glucose, 2.3 mM CaCl2 (pH 7.4)) at 37°C.
# The autocorrelation function G(τ) for j different diffusing components in a three-dimensional Gaussian volume element is given by the following equation:
# (2) τDj=ω02/4Dj, (3) Qj=σjηjgj, where N j is the average number of molecules of the species j in the volume element, τ Dj is the diffusion time constant of the species j, τ is the correlation time; ω 0 is the radius of the observation volume in the focal plane, z 0 is the radius of the observation volume in the z-direction, D j is the translational diffusion coefficient of the species j; Q j is the quantum yield factor, σ j is the absorption coefficient, η j is the fluorescence quantum yield, and g j is the fluorescence detection efficiency of the species j.
# All data points from FCS measurements represent mean values and standard deviations of six independent experiments. The statistical significance of results was proven with one factorial analysis of variance (ANOVA). The results were considered to be significant for P values ≤0.05.
# [1] = system: Rat vascular smooth muscle A10 cells; assay: Inositol phosphate (IP1) production, IP-One ELISA, A10 cells; format: cell-based; settings: 0.5 to 50 nM ligand, 30 min; for inositol phosphate (IP1) production, dose-dependent increase up to: ELISA read at 450 nm, mean ± SEM of eight measurements
# Protocol: The inositol phosphate determination assay was performed using the IP-One ELISA Kit for adherent cells (CISBIO, Cedex, France) following the operation instructions. […] The test substances were diluted in the stimulation buffer to a final concentration ranging from 0.5 to 50 nM. Cells were incubated for 30 minutes before their lysis. The supernatant was transferred into the ELISA plate where the competitive immunoassay took place. After the reaction was stopped, the optical density corresponding to IP accumulation was read at 450 nm with Bio-Rad Microplate Reader (Bio-Rad, Munich, Germany).
# Data are presented as the mean ± SEM of eight measurements.
# GABAA receptor = settings: coincubated benzodiazepines, hippocampal neurons, selectively complexes with hindered lateral mobility; cited from earlier work
# Text: For the ETA receptor model described here, as well as for the GABAA and the β 2-adrenergic receptor models described elsewhere, the proportion of the fast diffusing receptor-ligand complexes was higher than that of slow diffusing receptor-ligand complexes. These findings ...
# ETA receptor = system: ETA receptor; set-up: method as in PMID 8942650; settings: ET-1/receptor complexes dissociate slowly; cited from earlier work
# [2] = 14.3 nM Alexa532-ET1, equilibrium
# [3] = control, 14.3 nM Alexa532-ET1, 45 min, living A10 cells, FCS, mean ± SD of six independent experiments
Compound,"diffusion time constant τ free (free diffusing Alexa532-ET1 in solution, n = 6)","diffusion coefficient D free (free diffusing ligand, calculated from τ free using equation (2))","total binding (endothelin ETA receptor; 14.3 nM Alexa532-ET1, 45 min, 20°C)","total bound ligand concentration (endothelin ETA receptor; 14.3 nM Alexa532-ET1, 45 min, 20°C, equilibrium)",bound ligand with hindered diffusion (D bound1) (endothelin ETA receptor; [2]),receptor-ligand complexes with unrestricted lateral mobility (D bound2) (endothelin ETA receptor; [2]),"maximum number of binding sites B max (endothelin ETA receptor; bound versus total ligand, nonlinear curve fitting)",Free L with D free [%] (endothelin ETA receptor; [3]),"R-L with D bound1 [%] (hindered diffusion, % of total Alexa532-ET1) (endothelin ETA receptor; [3])","R-L with D bound2 [%] (unrestricted lateral mobility, % of total Alexa532-ET1) (endothelin ETA receptor; [3])","diffusion time constant τ bound2 (endothelin ETA receptor; receptor-ligand complex in plasma membrane, fast, 14.3 nM, 45 min, 20°C, n = 6)","diffusion time constant τ bound1 (endothelin ETA receptor; receptor-ligand complex in plasma membrane, slow, 14.3 nM, 45 min, 20°C, n = 6)","diffusion coefficient D bound1 (endothelin ETA receptor; receptor-ligand complexes with hindered lateral mobility, calculated from τ bound1)","diffusion coefficient D bound2 (endothelin ETA receptor; receptor-ligand complexes with unrestricted mobility, calculated from τ bound2)","total concentration at which binding saturates (endothelin ETA receptor; saturation of Alexa532-ET1 binding, 5–55 nM, 45 min)",inositol phosphate production (in words) [1],"inositol phosphate (IP1) production, dose-dependent increase up to [1]",effect on Alexa532-muscimol binding (in words) (GABAA receptor),incubation time necessary to reach thermodynamic equilibrium (ETA receptor)
CC[C@H](C)[C@H](NC(=O)[C@H](CC(=O)O)NC(=O)[C@H](CC(C)C)NC(=O)[C@H](Cc1c[nH]cn1)NC(=O)[C@@H]1CSSC[C@H](N)C(=O)N[C@@H](CO)C(=O)N[C@H]2CSSC[C@H](NC(=O)[C@H](CCC(=O)O)NC(=O)[C@H](CCCCNC(=O)c3ccc(C4=c5cc6c(c(S(=O)(=O)O)c5Oc5c4cc4c(c5S(=O)(=O)O)NC(C)C4(C)C)=NC(C)C6(C)C)cc3)NC(=O)[C@H](CC(=O)O)NC(=O)[C@H](CCSC)NC(=O)[C@H](CC(C)C)NC(=O)[C@H](CO)NC(=O)[C@H](CO)NC2=O)C(=O)N[C@@H](C(C)C)C(=O)N[C@@H](Cc2ccc(O)cc2)C(=O)N[C@@H](Cc2ccccc2)C(=O)N1)C(=O)N[C@H](C(=O)N[C@@H](Cc1c[nH]c2ccccc12)C(=O)O)[C@@H](C)CC (some centres unmarked) [Alexa532-ET1],95.6 ± 9.0 μs,104.2 ± 9.0 μm^2/s,43.5 ± 12.3%,6.22 ± 1.7 nM,2.3 ± 0.7 nM,3.9 ± 1.0 nM,7.70 ± 0.74 nM,56.5 ± 8.5%,16.0 ± 5.2%,27.5 ± 7.0%,1.8 ± 0.2 ms,63.6 ± 41.6 ms,0.16 ± 0.06 μm^2/s,5.6 ± 0.6 μm^2/s,approximately 35 nM,Dose-dependent increase of inositol phosphate production,70 to 80 nM,,
Cc1ncc2n1-c1ccc(Cl)cc1C(c1ccccc1F)=NC2 [midazolam],,,,,,,,,,,,,,,,,,increased binding of Alexa532-muscimol,
"Endothelin-1 [ET-1, reference compound]",,,,,,,,,,,,,,,,,70 to 80 nM,,more than 20 h
